Assays:
Assay in all cases: Kinase Assay
Conditions in all cases: pH 7.5; 30 °C
[1] = molecular target: Cyclin-dependent kinase 1 (Homo sapiens, UniProt P06493)
Excerpt: (§1) Kinase activity assay using GSK-3beta, CDK1/cyclin B and CDK5/p25.

[2] = molecular target: Cyclin-dependent kinase 5 (Homo sapiens, UniProt Q00535)
Excerpt: as §1

[3] = molecular target: Glycogen synthase kinase-3 beta (Homo sapiens, UniProt P49841)
Glycogen synthase kinase-3 beta, sequence (P49841 whole entry): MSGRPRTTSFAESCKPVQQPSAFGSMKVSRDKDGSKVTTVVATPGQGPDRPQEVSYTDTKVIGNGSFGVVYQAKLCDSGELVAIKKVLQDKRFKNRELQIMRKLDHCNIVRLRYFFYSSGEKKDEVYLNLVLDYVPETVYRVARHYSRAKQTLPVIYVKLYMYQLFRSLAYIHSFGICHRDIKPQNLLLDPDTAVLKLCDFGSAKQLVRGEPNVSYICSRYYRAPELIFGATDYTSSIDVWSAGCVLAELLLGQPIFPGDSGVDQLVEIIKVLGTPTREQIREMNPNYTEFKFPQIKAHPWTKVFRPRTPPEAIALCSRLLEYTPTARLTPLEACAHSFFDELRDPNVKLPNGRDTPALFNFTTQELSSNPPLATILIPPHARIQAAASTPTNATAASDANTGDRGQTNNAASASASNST
Excerpt: as §1

Cyclin-dependent kinase 1, sequence (P06493 whole entry): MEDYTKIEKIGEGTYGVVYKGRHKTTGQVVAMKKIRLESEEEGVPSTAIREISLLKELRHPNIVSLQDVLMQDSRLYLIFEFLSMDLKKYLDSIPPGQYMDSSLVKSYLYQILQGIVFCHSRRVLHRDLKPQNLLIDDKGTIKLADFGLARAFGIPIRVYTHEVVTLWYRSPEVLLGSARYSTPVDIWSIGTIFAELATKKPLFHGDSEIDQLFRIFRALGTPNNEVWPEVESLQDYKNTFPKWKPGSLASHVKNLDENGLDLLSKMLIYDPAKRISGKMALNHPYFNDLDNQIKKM
Cyclin-dependent kinase 5, sequence (Q00535 whole entry): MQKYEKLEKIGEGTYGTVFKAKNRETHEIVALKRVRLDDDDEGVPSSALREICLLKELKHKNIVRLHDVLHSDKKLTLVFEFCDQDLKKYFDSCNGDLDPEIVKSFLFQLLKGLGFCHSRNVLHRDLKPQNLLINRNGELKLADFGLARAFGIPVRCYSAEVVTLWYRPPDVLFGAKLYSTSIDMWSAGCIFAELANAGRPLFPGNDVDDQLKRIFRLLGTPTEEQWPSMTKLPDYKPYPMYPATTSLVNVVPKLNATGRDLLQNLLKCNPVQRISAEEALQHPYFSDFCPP

Compound	IC50 [1] [nM]	IC50 [2] [nM]	IC50 [3] [nM]
N#CCCc1ccc2c(c1)-c1[nH]c3ccc([N+](=O)[O-])cc3c1CC(=O)N2	0.23	30	0.8
NCCCCc1ccc2c(c1)-c1[nH]c3ccc([N+](=O)[O-])cc3c1CC(=O)N2 [Alsterpaullone derivative, 3]	80	70	6
NCCCc1ccc2c(c1)-c1[nH]c3ccc([N+](=O)[O-])cc3c1CC(=O)N2 [Alsterpaullone derivative, 4]	27	23	2.5
O=C(O)CCc1ccc2c(c1)-c1[nH]c3ccc([N+](=O)[O-])cc3c1CC(=O)N2 [Alsterpaullone derivative, 5]	25	80	6.5
COC(=O)CCc1ccc2c(c1)-c1[nH]c3ccc([N+](=O)[O-])cc3c1CC(=O)N2 [Alsterpaullone derivative, 6]	100	250	34

From BindingDB's records for doi:10.1002/cbic.200400099 (Technische UniversitÄT Braunschweig, 2005)
